Several values for one entry are separate records, joined by “and”; a condition that tells them apart may be missing. Equal entries are not always repeated.
System: THP-1 viability, CellTiter-Glo luminescence, 72 h
Experiment: PubChem AID 2252

SMILES | EC50
Cc1cc(C)c(NC(=O)C[N+](C)(C)CC(O)COc2cccc3ccccc23)c(C)c1 (centres undefined) | 12.8 µM
CNC[C@@H](Cc1ccccc1)NC[C@@H](CC1CCCCC1)NCCCc1ccccc1 | 3.56 µM
CC1CCc2cc(F)cc3c(=O)c(C(=O)O)cn1c23 (centres undefined) | < 0.1 µM
CCOC(=O)CNC(=O)Cn1c(C)cc2ccccc2c1=O | 40.9 µM
C#CCOCCOCCOCCNc1nc(N2CCN(C(=O)CCCCCCCCCCNC(=O)Cn3cc(C[C@@H](C)O)nn3)CC2)nc(N2CCN(C(=O)CCCCCCCCCCNC(=O)[C@@H]([C@H](C)CC)n3cc(CCCCCN)nn3)CC2)n1 | 9.97 µM
N=C1c2ccccc2CN1c1ncccn1 | < 0.1 µM
Oc1ccc(C[C@@H]2CNCCN2CCCCC2CCCCC2)cc1 | 8.53 µM
O=C(Cn1cc[n+](CC(=O)c2ccc(Cl)cc2Cl)c1)c1ccc(Cl)cc1Cl | 16.1 µM
CN1CC=C(/C=C/c2ccc(-c3ccccc3)cc2)CC1 | 10.5 µM
CCc1ccc(-c2nn(-c3ccccc3)cc2CSC(=N)N)cc1 | 5.18 µM
COc1ccc(C(=O)NC(=S)NNC(=O)c2cnccn2)cc1OC | 6.82 µM
CCN(CCCNC(=O)c1cn(CC)c2ccc(S(=O)(=O)N(C)C)cc2c1=O)c1cccc(C)c1 | 34.8 µM
Cc1ccccc1Nc1cc(C)c2c(O)cccc2n1 | 5.03 µM
c1ccc(CN2CCC(Nc3nc(-c4cccs4)nc4ccccc34)CC2)cc1 | 8.03 µM
Cc1c(CCN)ccc2c1[nH]c1ccccc12 | 22.3 µM
CC1CC(C)CN(CCOc2ccc(Cl)cc2Cl)C1 (centres undefined) | 29.4 µM
O=C(Nc1cccc(NC(=O)c2ccccc2Cl)c1)c1ccc([N+](=O)[O-])o1 | 2.11 µM
Cc1ccc(C)c(NC(=O)c2ccccc2O)c1 | 35.1 µM
CCCCCCC[N+](CC)(CC)CCCCc1ccc(Cl)cc1 | 3.22 µM
COc1ccc(OC)c(S(=O)(=O)N2CCC(C(=O)NCc3ccccc3OC)CC2)c1 | < 0.1 µM
C/C(=N\NC(=O)c1ccccc1O)c1cccs1 | 22.7 µM
Cc1ccc(C(=O)NNC(=S)NC(=O)COc2ccccc2)cc1 | 15.1 µM
C=CCNc1ncnc2c1[nH]c1ccc(C)cc12 | 29.5 µM

SMILES | EC50
CC(/C=N/Nc1nc2ccccc2[nH]1)=C\c1ccccc1 | 33.4 µM
CCc1nn(CCCN2CCN(c3cccc(Cl)c3)CC2)c(=O)n1CCOc1ccccc1 | 42.4 µM
Cc1cc([N+](=O)[O-])cc(/C=N\NC(=O)C2COc3ccccc3O2)c1O (centres undefined) | 14.3 µM
Cc1nonc1C(=O)N/N=C/c1ccc(O)cc1O | 8.05 µM
CN(C)CCCN(C(=O)COc1ccccc1)c1nc2ccc(Cl)cc2s1 | 46.8 µM
O=C(C[n+]1cc(-c2ccc(Cl)cc2)n2c1CCC2)N1c2ccccc2Sc2ccccc21 | 15.4 µM
c1ccc2cc(CSCc3nc4ccccc4[nH]3)ccc2c1 | 48.5 µM
Clc1ccc(Nc2ccc(NCc3ccccc3)nn2)cc1 | 22.4 µM
O=C(Nc1ccc(Cl)cc1)Nc1ccc2c(c1)N1CCN=C1S2 | 13.9 µM
Cc1cccc(C(=O)NNC(=S)NC(=O)c2cccs2)c1 | 14.6 µM
CN(C)CCCNc1cc(C(C)(C)C)nc2c(-c3ccc(Cl)cc3)cnn12 | 7.99 µM
C[C@H]1O[C@@H](n2cc(F)c(=O)[nH]c2=O)[C@H](O)[C@@H]1O | 26.7 µM
C(=N\Nc1nc2ccccc2[nH]1)/c1ccc2ncccc2c1 | 15.6 µM
CC(C(=O)c1ccc(-c2ccccc2)cc1)[n+]1cccc(NC(=O)c2ccccc2)c1 (centres undefined) | 17.7 µM
CC(=O)c1cc(O)c2ccccc2c1O | 41.2 µM
Fc1ccc(Nc2ccnc(Nc3ccc(F)cc3)n2)cc1 | 11.7 µM
CCn1cc(C(=O)NCCc2ccccc2)c(=O)c2cc(F)c(N3CCN(C)CC3)cc21 | 35.4 µM
C/C(Cn1nnc([N+](=O)[O-])n1)=N\NC(=O)c1ccccc1 | 40 µM
CCCOc1ccc(-c2cn3ccccc3n2)cc1 | 43.5 µM
C/C(=N/Nc1ccnc2cc(Cl)ccc12)c1ccc(N)cc1 | 8.34 µM
Cc1cccc2sc(N(CCCN(C)C)C(=O)COc3ccc(Cl)cc3)nc12 | 24.9 µM
S=C1SCN(Cc2cccnc2)CN1Cc1cccnc1 | 3.92 µM
O=C(CC(=O)c1cc(Cl)ccc1O)c1ccccc1 | 12.3 µM

SMILES | EC50
CN1CCN(Cc2cc(COCc3ccccc3)c3cccnc3c2O)CC1 | 2.82 µM
CN(C)CCCN1c2ccccc2CCc2ccc(Cl)cc21 | 18.4 µM
OCCNc1nc(Nc2ccccc2)nc2ccccc12 | 3.06 µM
NC1=NC2(CCCCC2)N=C(Nc2ccc(Br)cc2)N1 | 2.39 µM
CCn1cc(C(=O)NCc2ccc3c(c2)OCO3)c(=O)c2cc(F)c(N3CCN(C(=O)c4ccco4)CC3)cc21 | 19.9 µM
CO[C@H]1C=CO[C@@]2(C)Oc3c(C)c(O)c4c(O)c(c5c(c4c3C2=O)NC2(CCN(CC(C)C)CC2)N=5)=NC(=O)C(C)=CC=C[C@H](C)[C@H](O)[C@@H](C)[C@@H](O)[C@@H](C)[C@H](OC(C)=O)[C@@H]1C | 26 µM
CCCCCCCCCn1c2c(c(=N)c3c1CCC3)CCC2 | 0.52 µM
O=c1c2ccccc2nc(COc2ccccc2)n1/N=C/c1ccc(O)cc1O | 1.46 µM
CC(=O)NC(=S)NNC(=O)c1ccc(Br)cc1 | 27.6 µM
COc1ccccc1Nc1nc(NCC2CCCO2)c2ccccc2n1 (centres undefined) | 14.1 µM
Cc1ccc2nc(N(CCCN(C)C)C(=O)c3ccc4c(c3)CCCC4)sc2c1 | 9.42 µM
CCN1CCN(CCCNC(=O)c2ccc(/C=C3/Sc4ccccc4N(Cc4ccccc4F)C3=O)cc2)CC1 | 11.2 µM
COC(=O)c1cc(CSC(=N)N)ccc1OCCC(C)C | 14.7 µM
CN1CCN(C2=Cc3ccccc3Sc3cc(F)c(F)cc32)CC1 | 14.8 µM
COc1cccc(Nc2cc(C)nc3ccccc23)c1 | 30.5 µM
Oc1ccc(C[C@@H]2CNCCN2CCC23CC4CC(CC(C4)C2)C3)cc1 | 9.86 µM
Cc1ccc(-c2c[n+](Cc3ccc(Cl)c(Cl)c3)c3n2CCC3)cc1 | 4.37 µM
COc1cccc(/C=N/NC(=O)C(=O)N2CCCC2)c1O | 40 µM
CSc1nnc(-c2cccc(NC(=S)NN)c2)o1 | < 0.1 µM
CCN(CC)CCSc1nnc2c3ccccc3n(Cc3ccccc3)c2n1 | 26.3 µM
COc1ccc(C(=O)NC(=S)NNC(=O)c2cccnc2)cc1 | 21.4 µM
C=C1c2c(Cl)ccc(O)c2C(O)=C2C(=O)[C@]3(O)C(O)=C(C(N)=O)C(=O)[C@@H](N(C)C)[C@@H]3[C@@H](O)C12 (some centres undefined) | 13.4 µM
O=C(CNC(=O)c1ccccc1)N/N=C/c1ccc([N+](=O)[O-])s1 | 16.9 µM

SMILES | EC50
Cc1ccc2nc(NCc3ccccc3)[nH]c2c1 | 3.85 µM
COc1ccc(OCc2n(CC(=O)OC3CC(C)CCC3C(C)C)c3ccccc3[n+]2C)cc1 (centres undefined) | 1.63 µM
CCN(CCC(=O)Nc1ccc(Br)c(C)c1)Cc1ccccc1 | 13.8 µM
NC(=NCCCCCCN=C(N)/N=C(\N)Nc1ccc(Cl)cc1)/N=C(\N)Nc1ccc(Cl)cc1 | 3.5 µM and 1.62 µM and 3.91 µM
CN1CCN(C(c2ccc(C(F)(F)F)cc2)c2ccc3cccnc3c2O)CC1 (centres undefined) | 1.36 µM
O=C(/C=C/c1ccco1)NC(=S)Nc1cccc(-c2nc3ccccc3o2)c1 | < 0.1 µM
O=C(CC(=O)c1c(F)cccc1Cl)c1ccccc1O | 27.4 µM
Cc1nc2ccccn2c1C(=O)N/N=C/c1ccc([N+](=O)[O-])o1 | 13.9 µM
O=C1c2cccc3cccc(c23)C(=O)C1(O)O | 30.2 µM
COc1ccc(CNCC(O)COc2ccc(C(C)(C)c3ccccc3)cc2)cc1 (centres undefined) | 14.7 µM
Cc1cc(C)c2nc(C)cc(N/N=C/c3ccc(O)cc3)c2c1 | 1.91 µM
Nc1nc2ccccc2n1Cc1ccc(Cl)c(Cl)c1 | 31.6 µM
Cc1ccc(NC(=O)CS(=O)CC(=O)Nc2ccccc2-c2ccc(C)o2)cc1 (centres undefined) | 21.6 µM
CN1CCN(C2Cc3ccc(Cl)cc3Sc3ccc(F)cc32)CC1 (centres undefined) | 11.6 µM
[O-][n+]1cccc2c(Br)cc(Br)c(O)c21 | 24.4 µM
Cc1ccc2c(c1)c1c(n2CC(O)CN2CCC(C)CC2)CCCC1 (centres undefined) | 16 µM
Cc1cc2ncn(/N=C/c3ccc([N+](=O)[O-])o3)c2cc1C | 49.3 µM
O=C(N/N=C/c1cc(O)ccc1Br)c1cccnc1 | 2.86 µM
O=C(N/N=C/c1ccc([N+](=O)[O-])o1)c1ccc(O)cc1 | 13.1 µM
O=C(Nc1nnc(-c2ccco2)o1)c1cccc(Cl)c1 | 21.1 µM
Cc1ccc(S(=O)(=O)CCC(=O)c2ccc(O)cc2O)cc1 | 16 µM
O=C(N/N=C/c1cc([N+](=O)[O-])ccc1O)c1cccc2cc[nH]c12 | 1.91 µM
COc1ccc(N2C3=C(CC4=C2CC(C)(C)CC4=O)C(=O)CC(C)(C)C3)cc1 | 7.53 µM

SMILES | EC50
CCCCCCCCn1ccc(=N)cc1 | 5.47 µM
NC[C@@H]1O[C@H](C23CC4CC(CC(C4)C2)C3)Cc2c1ccc(O)c2O | 3.6 µM
C#CCOCCOCCOCCNc1nc(N2CCN(C(=O)CCCCCCCCCCNC(=O)[C@H](CCCCN)n3cc(C[C@@H](C)CC)nn3)CC2)nc(N2CCN(C(=O)CCCCCCCCCCNC(=O)[C@@H]([C@H](C)O)n3cc(C)nn3)CC2)n1 | 6.17 µM
Cc1ccc2oc(=O)c(/C=C(\O)c3ccccc3)nc2c1 | < 0.1 µM
c1cc2c(cc1C1CCCCC1)c1c3n2CCCNC3CCC1 (centres undefined) | 5.18 µM
CC(C)N=C(N)N=C(N)Nc1ccc(Cl)cc1 | 35.1 µM
COc1cccc(F)c1C(C[N+](=O)[O-])c1c(N)n(C)c(=O)n(C)c1=O (centres undefined) | 6.05 µM
COc1ccc(N=CC2=C(Nc3ccc(OC)cc3)c3c(C)nn(-c4ccccn4)c3CC2)cc1 | 2.16 µM
O=C(NCCCN1CCOCC1)c1sc2cc(Cl)ccc2c1Cl | 35.8 µM
c1ccc2c(NCCc3c[nH]c4ccccc34)c3ccccc3nc2c1 | 4.35 µM
CCCCCCCCCCOC(=O)Cn1c(COc2ccc(C)cc2)[n+](C)c2ccccc21 | 2.36 µM
CCc1c(C)nc2cc(-c3cc(OC)cc(OC)c3)nn2c1N1CCCC1 | 31 µM
O=C(/C=C/c1cccs1)NC(=S)NNC(=O)c1ccccc1O | 2.79 µM
CCc1nc(SCC(=O)Nc2ccc(N(C)C)cc2)c2ccccc2n1 | 35.3 µM
CC(C)(c1ccccc1)c1ccc(OCCCN2CCNCC2)cc1 | 15.3 µM
N=c1c2c(n(Cc3ccc(Cl)cc3)c3c1CCC3)CCC2 | 11.3 µM
Cc1ccc2nsnc2c1S(=O)(=O)NCc1ccc2c(c1)OCO2 | < 0.1 µM
c1ccc(CN2CCN(c3nc(NCc4ccco4)c4ccccc4n3)CC2)cc1 | 15.3 µM
Cc1oc(/N=C/c2ccc(O)cc2O)c(C#N)c1C | < 0.1 µM
O=[N+]([O-])c1cc(F)c2cccnc2c1O | 22.9 µM
CC(C)(C)c1ccc(OCCCNC2CCCC2)cc1 | 19.9 µM
CCc1ccc2c(c1)CCCN2C(=O)c1ccccc1C(=O)O | 38.3 µM

Source: PubChem BioAssay AID2252 (Southern Research Specialized Biocontainment Screening …, 2010)
